SMILES strings stand for the structures.

Among the targets are MAP3K4 (Homo sapiens, UniProt Q9Y6R4); RET(V804M) (Homo sapiens, UniProt P07949, V804M); PIM3 (Homo sapiens, UniProt Q86V86); PIK3CA (Homo sapiens, UniProt P42336); ROCK1 (Homo sapiens, UniProt Q13464); GRK4 (Homo sapiens, UniProt P32298); NEK1 (Homo sapiens, UniProt Q96PY6); CAMK1D (Homo sapiens, UniProt Q8IU85); KIT(A829P) (Homo sapiens, UniProt P10721, A829P); PIK3CA(Q546K) (Homo sapiens, UniProt P42336, Q546K); AKT1 (Homo sapiens, UniProt P31749); WEE1 (Homo sapiens, UniProt P30291); MERTK (Homo sapiens, UniProt Q12866); CSNK1G3 (Homo sapiens, UniProt Q9Y6M4); TNNI3K (Homo sapiens, UniProt Q59H18); AXL (Homo sapiens, UniProt P30530); ERBB2 (Homo sapiens, UniProt P04626); PKN1 (Homo sapiens, UniProt Q16512).

Assay in all cases: biochemical
Holding throughout (set-up): KINOMEscan active-site competition binding, percent of control (100 = no competition)
What all share (details): competition binding, percent control

The target in the next test is T1, ARK5 (Homo sapiens, UniProt O60285).
T1 construct: gene NUAK1

Another test addresses T2, p38-gamma (Homo sapiens, UniProt P53778).
T2 construct: gene MAPK12

A further test has as its target T3, ADCK4 (Homo sapiens, UniProt Q96D53).
T3 construct: gene COQ8B

The next test addresses T4, YANK3 (Homo sapiens, UniProt Q86UX6).
T4 construct: gene STK32C

A further test addresses T5, TAK1 (Homo sapiens, UniProt O43318).
T5 construct: gene MAP3K7

Chain of ROCK1 (Q13464 whole entry): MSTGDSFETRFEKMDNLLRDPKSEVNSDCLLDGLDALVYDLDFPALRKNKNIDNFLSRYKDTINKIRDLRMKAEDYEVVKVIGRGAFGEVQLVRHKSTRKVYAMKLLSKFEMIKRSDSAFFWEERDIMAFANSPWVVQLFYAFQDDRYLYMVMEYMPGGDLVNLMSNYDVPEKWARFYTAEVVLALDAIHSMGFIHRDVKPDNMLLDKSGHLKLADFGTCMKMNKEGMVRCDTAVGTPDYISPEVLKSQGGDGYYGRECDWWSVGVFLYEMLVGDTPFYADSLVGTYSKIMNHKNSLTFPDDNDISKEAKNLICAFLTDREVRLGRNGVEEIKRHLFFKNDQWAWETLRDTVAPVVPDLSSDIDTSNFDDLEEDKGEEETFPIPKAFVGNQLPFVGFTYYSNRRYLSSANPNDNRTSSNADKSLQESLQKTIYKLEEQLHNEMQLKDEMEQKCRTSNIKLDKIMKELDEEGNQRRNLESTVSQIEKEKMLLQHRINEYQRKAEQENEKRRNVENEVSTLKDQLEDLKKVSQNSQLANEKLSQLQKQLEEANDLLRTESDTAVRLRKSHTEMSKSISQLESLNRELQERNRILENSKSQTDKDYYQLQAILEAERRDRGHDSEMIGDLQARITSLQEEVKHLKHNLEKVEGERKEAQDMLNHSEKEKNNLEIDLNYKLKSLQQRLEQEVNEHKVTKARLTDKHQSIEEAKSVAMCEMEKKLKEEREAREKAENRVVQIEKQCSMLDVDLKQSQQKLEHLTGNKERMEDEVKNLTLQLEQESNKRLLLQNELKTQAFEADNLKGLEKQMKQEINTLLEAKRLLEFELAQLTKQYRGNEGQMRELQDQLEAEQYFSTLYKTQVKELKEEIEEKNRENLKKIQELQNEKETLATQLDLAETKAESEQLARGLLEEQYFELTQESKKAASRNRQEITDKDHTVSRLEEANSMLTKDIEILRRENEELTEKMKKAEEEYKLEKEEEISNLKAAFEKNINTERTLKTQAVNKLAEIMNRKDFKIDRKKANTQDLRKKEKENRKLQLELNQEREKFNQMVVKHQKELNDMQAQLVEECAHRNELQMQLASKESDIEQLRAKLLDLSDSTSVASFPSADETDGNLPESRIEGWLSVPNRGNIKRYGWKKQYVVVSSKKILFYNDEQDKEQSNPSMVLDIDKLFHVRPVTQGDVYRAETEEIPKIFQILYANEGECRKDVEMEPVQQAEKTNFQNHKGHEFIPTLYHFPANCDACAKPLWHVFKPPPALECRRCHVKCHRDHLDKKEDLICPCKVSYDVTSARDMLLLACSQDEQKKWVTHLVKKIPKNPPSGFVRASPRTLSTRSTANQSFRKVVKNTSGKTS
Chain of PKN1 (Q16512 whole entry): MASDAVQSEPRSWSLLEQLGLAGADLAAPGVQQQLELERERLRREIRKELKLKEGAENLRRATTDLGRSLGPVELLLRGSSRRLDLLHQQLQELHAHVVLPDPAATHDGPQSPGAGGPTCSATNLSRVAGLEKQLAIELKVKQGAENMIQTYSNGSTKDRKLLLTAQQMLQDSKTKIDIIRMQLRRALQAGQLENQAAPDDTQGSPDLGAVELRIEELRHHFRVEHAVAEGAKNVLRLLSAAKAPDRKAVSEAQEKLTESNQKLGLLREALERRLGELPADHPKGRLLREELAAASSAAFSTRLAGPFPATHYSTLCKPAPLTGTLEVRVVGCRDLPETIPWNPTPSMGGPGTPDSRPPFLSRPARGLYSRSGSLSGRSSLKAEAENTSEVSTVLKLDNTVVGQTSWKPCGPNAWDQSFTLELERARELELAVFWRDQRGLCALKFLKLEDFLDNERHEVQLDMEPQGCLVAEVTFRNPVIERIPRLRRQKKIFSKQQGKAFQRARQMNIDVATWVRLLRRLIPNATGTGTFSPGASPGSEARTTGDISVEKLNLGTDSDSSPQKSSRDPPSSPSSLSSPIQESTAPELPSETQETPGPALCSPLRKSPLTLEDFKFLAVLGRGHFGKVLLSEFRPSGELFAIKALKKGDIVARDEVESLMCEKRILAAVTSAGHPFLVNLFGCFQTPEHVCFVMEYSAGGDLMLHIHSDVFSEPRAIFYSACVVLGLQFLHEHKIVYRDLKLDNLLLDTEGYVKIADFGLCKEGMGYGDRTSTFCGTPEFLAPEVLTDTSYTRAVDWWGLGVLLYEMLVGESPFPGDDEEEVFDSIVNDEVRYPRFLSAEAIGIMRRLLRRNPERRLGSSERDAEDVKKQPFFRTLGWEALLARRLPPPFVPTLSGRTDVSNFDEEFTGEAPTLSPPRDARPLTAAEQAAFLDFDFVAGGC
Chain of NEK1 (Q96PY6 whole entry): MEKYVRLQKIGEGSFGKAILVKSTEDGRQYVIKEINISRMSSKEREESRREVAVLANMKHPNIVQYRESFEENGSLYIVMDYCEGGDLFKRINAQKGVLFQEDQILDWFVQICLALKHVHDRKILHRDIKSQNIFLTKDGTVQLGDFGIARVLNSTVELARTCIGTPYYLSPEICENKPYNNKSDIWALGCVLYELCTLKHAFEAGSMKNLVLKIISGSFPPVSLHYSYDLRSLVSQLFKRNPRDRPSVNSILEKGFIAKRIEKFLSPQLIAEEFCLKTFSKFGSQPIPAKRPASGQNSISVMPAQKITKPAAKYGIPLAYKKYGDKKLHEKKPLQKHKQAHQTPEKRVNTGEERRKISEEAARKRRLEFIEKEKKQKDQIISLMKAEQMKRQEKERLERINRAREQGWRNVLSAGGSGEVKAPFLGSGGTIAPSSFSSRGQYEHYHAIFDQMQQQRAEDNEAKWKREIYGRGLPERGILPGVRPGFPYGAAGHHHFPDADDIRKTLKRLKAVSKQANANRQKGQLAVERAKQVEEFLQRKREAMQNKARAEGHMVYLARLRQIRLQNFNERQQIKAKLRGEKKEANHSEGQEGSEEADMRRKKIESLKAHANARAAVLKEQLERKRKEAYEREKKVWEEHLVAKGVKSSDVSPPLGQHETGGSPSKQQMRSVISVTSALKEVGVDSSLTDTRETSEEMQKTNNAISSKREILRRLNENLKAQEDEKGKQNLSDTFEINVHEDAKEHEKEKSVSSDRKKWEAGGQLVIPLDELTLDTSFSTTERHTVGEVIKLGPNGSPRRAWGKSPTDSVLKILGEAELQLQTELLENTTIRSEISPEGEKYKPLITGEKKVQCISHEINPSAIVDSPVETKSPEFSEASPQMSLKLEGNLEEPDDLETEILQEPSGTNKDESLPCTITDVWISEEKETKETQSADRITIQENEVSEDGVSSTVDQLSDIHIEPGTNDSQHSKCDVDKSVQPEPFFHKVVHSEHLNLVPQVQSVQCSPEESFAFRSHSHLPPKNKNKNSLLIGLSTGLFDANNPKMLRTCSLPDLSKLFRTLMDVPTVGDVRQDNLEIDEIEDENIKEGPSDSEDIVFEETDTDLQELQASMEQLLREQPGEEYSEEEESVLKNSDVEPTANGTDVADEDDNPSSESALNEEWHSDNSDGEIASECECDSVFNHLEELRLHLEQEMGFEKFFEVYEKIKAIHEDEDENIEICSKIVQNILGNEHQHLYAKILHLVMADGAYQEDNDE
Chain of ERBB2 (P04626 whole entry): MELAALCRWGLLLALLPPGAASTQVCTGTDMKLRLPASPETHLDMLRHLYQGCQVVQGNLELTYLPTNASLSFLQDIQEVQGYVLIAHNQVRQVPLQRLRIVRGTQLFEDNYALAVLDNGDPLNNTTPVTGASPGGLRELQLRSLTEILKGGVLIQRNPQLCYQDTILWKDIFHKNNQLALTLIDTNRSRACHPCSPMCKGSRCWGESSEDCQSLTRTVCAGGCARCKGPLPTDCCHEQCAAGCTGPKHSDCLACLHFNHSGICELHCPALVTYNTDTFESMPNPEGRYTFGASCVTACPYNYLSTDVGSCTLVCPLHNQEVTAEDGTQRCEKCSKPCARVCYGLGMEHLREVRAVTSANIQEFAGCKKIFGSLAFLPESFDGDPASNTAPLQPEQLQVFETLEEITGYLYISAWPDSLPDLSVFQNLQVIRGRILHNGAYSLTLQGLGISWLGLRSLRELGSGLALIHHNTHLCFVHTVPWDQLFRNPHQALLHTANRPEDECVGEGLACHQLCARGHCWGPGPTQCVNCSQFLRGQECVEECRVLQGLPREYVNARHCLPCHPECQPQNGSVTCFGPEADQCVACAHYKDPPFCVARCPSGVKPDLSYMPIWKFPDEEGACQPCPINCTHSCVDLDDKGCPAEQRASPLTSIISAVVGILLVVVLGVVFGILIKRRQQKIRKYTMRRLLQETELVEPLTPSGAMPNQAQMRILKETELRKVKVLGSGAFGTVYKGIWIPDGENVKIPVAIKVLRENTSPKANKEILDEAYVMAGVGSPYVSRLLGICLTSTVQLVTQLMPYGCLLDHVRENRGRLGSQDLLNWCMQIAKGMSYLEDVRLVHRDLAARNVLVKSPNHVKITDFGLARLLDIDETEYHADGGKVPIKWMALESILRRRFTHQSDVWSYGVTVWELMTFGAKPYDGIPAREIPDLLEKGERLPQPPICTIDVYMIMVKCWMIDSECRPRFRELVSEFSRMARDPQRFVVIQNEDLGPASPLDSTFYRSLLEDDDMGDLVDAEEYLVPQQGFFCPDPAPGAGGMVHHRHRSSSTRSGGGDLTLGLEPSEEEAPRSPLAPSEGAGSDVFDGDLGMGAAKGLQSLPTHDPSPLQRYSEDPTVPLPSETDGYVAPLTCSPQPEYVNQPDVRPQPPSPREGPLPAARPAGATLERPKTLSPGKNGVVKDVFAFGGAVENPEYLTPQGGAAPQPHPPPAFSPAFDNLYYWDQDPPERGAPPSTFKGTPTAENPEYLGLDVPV

Take `COc1ccc(-c2cnccc2-c2cnc(NC(=O)C(C)C)s2)c(C(F)(F)F)c1` [CRT0105446, N-{5-[3-(4-Methoxy-2-trifluoromethyl-phenyl)-pyridin-4-yl]-hiazol-2-yl}-isobutyramide]: the remaining binding at 10 µM came to 99% on MAP3K4; 68% at RET(V804M); 95% at PIM3; 59% at ARK5; 100% on PIK3CA; 86% on ROCK1. For the same molecule, the remaining binding at 10 µM on GRK4 stood at 100%; at NEK1, 100%; on CAMK1D it was 79%; at p38-gamma it was 100%; on KIT(A829P), 100%; at PIK3CA(Q546K), 100%. The remaining binding at 10 µM at AKT1 is 100%; on ADCK4, 85%; at WEE1, 87%; on MERTK, 69%; on CSNK1G3, 67%; at TNNI3K, 93%. For the same molecule, the remaining binding at 10 µM at AXL came out at 87%; at YANK3, 100%; on TAK1, 79%; at ERBB2, 94%; at PKN1, 62%.

`Cc1ccc(-c2cnccc2-c2cnc(Nc3ccc(O)cc3)s2)c(Cl)c1` [CRT0105950, 4-{5-[3-(2-Chloro-4-methyl-phenyl)-pyridin-4-yl]-thiazol-2-ylamino}-phenol]: the remaining binding at 10 µM at MAP3K4 was 100%; on RET(V804M), 3.4%; on PIM3, 72%; on ARK5, 49%; on PIK3CA, 100%; at ROCK1, 79%. Besides, the remaining binding at 10 µM at GRK4 came to 89%; on NEK1 it was 81%; on CAMK1D, 63%; on p38-gamma, 100%; at KIT(A829P), 35%; on PIK3CA(Q546K), 100%. In addition, the remaining binding at 10 µM on AKT1 amounted to 100%; on ADCK4, 58%; at WEE1 it was 48%; on MERTK it was 0.45%; on CSNK1G3, 43%; at TNNI3K, 43%. For the same molecule, the remaining binding at 10 µM on AXL is 43%; at YANK3, 100%; on TAK1, 33%; on ERBB2, 80%; on PKN1, 20%.

The values above are taken from PMC4770715, “LIM kinase inhibitors disrupt mitotic microtubule organization and impair tumor cell proliferation” (Oncotarget, 2015).
